Our source for the MIC values is patent US4870168A, “3-Unsaturated alkyl cephems from 3-triflyl cephems” (Bristol-Myers Company, priority 1987, dated 1989).

SMILES strings stand for the structures. ≈ marks a conversion by molar mass, not a printed value. Like-named read-outs stand apart in the source and are kept apart here.

Holding throughout (assay type): cell-based
One assay relates to S. pneumoniae. As to the kind of experiment: Antibacterial activity (MIC). The note with it: Streptococcus pneumoniae.
A further assay deals with S. pyogenes. The experiment in a line: Antibacterial activity (MIC). The following applies: Streptococcus pyogenes.
A further assay has as its system S. faecalis. As to the kind of experiment: Antibacterial activity (MIC). The note with it: Enterococcus faecalis.
In a further assay the test system is S. aureus. The experiment in a line: Antibacterial activity (MIC). The following applies: Staphylococcus aureus.
Another assay deals with S. aureus /50% serum. As to the kind of experiment: Antibacterial activity (MIC), 50% serum. The note with it: Staphylococcus aureus.
A further assay has as its system S. aureus /Pen. Res. As to the kind of experiment: Antibacterial activity (MIC). The note with it: Staphylococcus aureus.
The next assay relates to S. aureus /Meth. Res. As to the kind of experiment: Antibacterial activity (MIC). The note with it: Staphylococcus aureus.
For a further assay, the system named is E. coli. As to the kind of experiment: Antibacterial activity (MIC). The note with it: Escherichia coli.
For the next assay, the system named is K. pneumoniae. The experiment in a line: Antibacterial activity (MIC). The note with it: Klebsiella pneumoniae.
The next assay has as its system E. cloacae. As to the kind of experiment: Antibacterial activity (MIC). The note with it: Enterobacter cloacae.
A further assay relates to P. mirabilis. As to the kind of experiment: Antibacterial activity (MIC). The following applies: Proteus mirabilis.
Where [1] appears, read: S. aureus /Pen. Res., read-out: MIC.
Setting [2] is: S. aureus /Meth. Res., read-out: MIC.

The MIC is the lowest concentration that inhibits growth of the organism.

In the case of `CC=C=CC1=C(C(=O)O)N2C(=O)C(NC(=O)[C@H](N)c3ccc(O)cc3)C2SC1` (some centres unmarked) [Ex. 14], the MIC in the assay with S. pneumoniae was 2 µg/mL (≈ 4.98 µM); against S. pyogenes, 2 µg/mL (≈ 4.98 µM); with S. faecalis, over 63 µg/mL; with S. aureus it was 8 µg/mL (≈ 19.9 µM); against S. aureus /50% serum, 32 µg/mL (≈ 79.7 µM); in the assay on S. aureus /Pen. Res. (setting [1]), 63 µg/mL (≈ 157 µM). The MIC in the assay with S. aureus /Meth. Res. (setting [2]), against E. coli (first of two lines), in the assay on E. coli (second of two lines), in the assay with K. pneumoniae (first of two lines), in the assay on K. pneumoniae (second of two lines) and against E. cloacae was over 63 µg/mL in each case. In the assay on P. mirabilis, this compound registered a minimal inhibitory concentration (MIC) of 63 µg/mL (≈ 157 µM).
With `CC#CC1=C(C(=O)OC(c2ccccc2)c2ccccc2)N2C(=O)C(NC(=O)Cc3ccccc3)[C@H]2SC1` (some centres unmarked) [Ex. 2, Diphenylmethyl 7-phenylacetamido-3-(1-propynyl)-3-cephem-4-carboxylate], the MIC with S. pneumoniae was 8 µg/mL (≈ 15.3 µM); in the assay with S. pyogenes, 4 µg/mL (≈ 7.65 µM); in the assay on S. faecalis, 16 µg/mL (≈ 30.6 µM); against S. aureus, 4 µg/mL (≈ 7.65 µM); with S. aureus /50% serum it was over 16 µg/mL; with S. aureus /Pen. Res. (setting [1]) it was 8 µg/mL (≈ 15.3 µM). Moreover, the MIC with S. aureus /Meth. Res. (setting [2]) was over 16 µg/mL; against E. coli (first of two lines) it was 16 µg/mL (≈ 30.6 µM); against E. coli (second of two lines), 16 µg/mL (≈ 30.6 µM); in the assay with K. pneumoniae (first of two lines), 16 µg/mL (≈ 30.6 µM); with K. pneumoniae (second of two lines), over 16 µg/mL; against E. cloacae it was over 16 µg/mL. In the assay with P. mirabilis, the MIC amounted to 16 µg/mL (≈ 30.6 µM).
On to `CC1=C(C(=O)O)N2C(=O)[C@@H](NC(=O)[C@H](N)c3ccccc3)[C@H]2SC1` [CEPHALEXIN, reference compound], for which the MIC against S. pneumoniae stood at 0.5 µg/mL (≈ 1.44 µM); against S. pyogenes, 0.25 µg/mL (≈ 0.72 µM); against S. faecalis, 63 µg/mL (≈ 181 µM); in the assay with S. aureus, 0.5 µg/mL (≈ 1.44 µM); against S. aureus /50% serum it was 1 µg/mL (≈ 2.88 µM); in the assay on S. aureus /Pen. Res. it was 8 µg/mL (≈ 23 µM). The minimal inhibitory concentration (MIC) in the assay with S. aureus /Meth. Res. is over 125 µg/mL; with E. coli (first of two lines) it was 4 µg/mL (≈ 11.5 µM); with E. coli (second of two lines), 4 µg/mL (≈ 11.5 µM); against K. pneumoniae (first of two lines), 4 µg/mL (≈ 11.5 µM); in the assay with K. pneumoniae (second of two lines), 63 µg/mL (≈ 181 µM); against E. cloacae, over 125 µg/mL. The MIC in the assay on P. mirabilis amounted to 4 µg/mL (≈ 11.5 µM).
Take `C/C=C\C1=C(C(=O)OC(c2ccccc2)c2ccccc2)N2C(=O)C(NC(=O)Cc3ccccc3)[C@H]2SC1` (some centres unmarked) [Ex. 1, Diphenylmethyl 7-phenylacetamido-3-(Z-1-propenyl)-3-cephem-4-carboxylate]: the minimum inhibitory concentration (MIC) in the assay on S. pneumoniae amounted to 0.03 µg/mL (≈ 0.0572 µM); in the assay with S. pyogenes it was 0.016 µg/mL (≈ 0.0305 µM); against S. faecalis it was 8 µg/mL (≈ 15.2 µM); against S. aureus, 0.13 µg/mL (≈ 0.248 µM); against S. aureus /50% serum it was 0.5 µg/mL (≈ 0.953 µM); in the assay on S. aureus /Pen. Res. (setting [1]), 1 µg/mL (≈ 1.91 µM). Also, the MIC is over 125 µg/mL in the assay with S. aureus /Meth. Res. (setting [2]); 1 µg/mL (≈ 1.91 µM) in the assay on E. coli (first of two lines); 4 µg/mL (≈ 7.62 µM) against E. coli (second of two lines); 0.5 µg/mL (≈ 0.953 µM) against K. pneumoniae (first of two lines); 63 µg/mL (≈ 120 µM) against K. pneumoniae (second of two lines); over 125 µg/mL against E. cloacae. The same compound yielded an MIC in the assay with P. mirabilis of 1 µg/mL (≈ 1.91 µM).
As to `N[C@@H](C(=O)N[C@@H]1C(=O)N2C(C(=O)O)=C(Cl)CS[C@H]12)c1ccccc1` [CEFACLOR, reference compound], the MIC in the assay with S. pneumoniae came to 0.13 µg/mL (≈ 0.353 µM); against S. pyogenes, 0.13 µg/mL (≈ 0.353 µM); against S. faecalis, 32 µg/mL (≈ 87 µM); in the assay on S. aureus, 0.25 µg/mL (≈ 0.68 µM); against S. aureus /50% serum it was 1 µg/mL (≈ 2.72 µM); with S. aureus /Pen. Res., 1 µg/mL (≈ 2.72 µM). Moreover, the MIC in the assay with S. aureus /Meth. Res. was over 125 µg/mL; against E. coli (first of two lines), 1 µg/mL (≈ 2.72 µM); in the assay with E. coli (second of two lines), 2 µg/mL (≈ 5.44 µM); against K. pneumoniae (first of two lines), 0.5 µg/mL (≈ 1.36 µM); with K. pneumoniae (second of two lines) it was 63 µg/mL (≈ 171 µM); against E. cloacae it was over 125 µg/mL. In addition, it took 2 µg/mL (≈ 5.44 µM) to inhibit growth against P. mirabilis (MIC).
With `CC(C)=CC1=C(C(=O)OC(c2ccccc2)c2ccccc2)N2C(=O)C(NC(=O)Cc3ccccc3)[C@H]2SC1` (some centres unmarked) [Ex. 3, Diphenylmethyl 7-phenylacetamido-3-(2-methyl-1-propenyl)-3-cephem-4-carboxylate], the MIC is 0.03 µg/mL (≈ 0.0557 µM) against S. pneumoniae; 0.03 µg/mL (≈ 0.0557 µM) with S. pyogenes; 4 µg/mL (≈ 7.43 µM) against S. faecalis; 0.06 µg/mL (≈ 0.111 µM) in the assay with S. aureus /50% serum; 0.5 µg/mL (≈ 0.928 µM) in the assay on S. aureus /Pen. Res. (setting [1]); over 125 µg/mL in the assay with S. aureus /Meth. Res. (setting [2]). Besides, the MIC is 2 µg/mL (≈ 3.71 µM) in the assay on E. coli (first of two lines); 32 µg/mL (≈ 59.4 µM) with E. coli (second of two lines); 4 µg/mL (≈ 7.43 µM) against K. pneumoniae (first of two lines); over 125 µg/mL with K. pneumoniae (second of two lines); 63 µg/mL (≈ 117 µM) with E. cloacae; 4 µg/mL (≈ 7.43 µM) in the assay with P. mirabilis.
